Values of other authors, collected in PubChem BioAssay AID1259409 (Chemical Carcinogenesis Research Information System (CCRIS), 2018).
Several values for one entry are separate records, joined by “and”; a condition that tells them apart may be missing. Equal entries are not always repeated.

Test system: rodent chemically induced tumor inhibition, incidence and multiplicity
Experiment: CCRIS tumor inhibitor studies
Conditions: Route [Inhibitor]: ORAL, Species: RAT

O=C(O)c1ccc(O)c(O)c1
tumour outcome (control, treated, inhibition, significance) (Carcinogen: 2-AMINO-1-METHYL-6-PHENYLIMIDAZO[4,5-B]PYRIDINE [105650-23-5], Dose [Inhibitor]: 2,000 PPM IN DIET FOR 4 WK BEGINNING WK PRIOR TO FIRST CARCINOGEN DOSE (STUDY DURATION: 25 WK), Strain/Sex: SPRAGUE-DAWLEY/FEMALE, Target Tissue: Type of Lesion: MAMMARY GLAND: FIBROADENOMA OR DUCTAL CARCINOMA, Dose [Carcinogen]: 85 MG/KG BW 2X/WK FOR 4 WK (STUDY DURATION: 25 WK), Promoter: NONE): 63%, 59%, 6%, not significant
tumour outcome (control, treated, inhibition, significance) (Carcinogen: 4-NITROQUINOLINE-1-OXIDE, 56-57-5, Dose [Inhibitor]: 0, 500 PPM IN DIET FOR 10 WK BEGINNING 1 WK PRIOR TO CARCINOGEN TREATMENT (STUDY DURATION: 32 WK), Strain/Sex: F344/MALE, Target Tissue: Type of Lesion: TONGUE: PAPILLOMA, Dose [Carcinogen]: 20 PPM IN DRINKING WATER FOR 8 WK, Promoter: NONE USED): 3/19 (16%), 3/20 (15%), 6%, not significant and 16%, 15%, 6%, not significant
tumour outcome (control, treated, inhibition, significance) (Carcinogen: 4-NITROQUINOLINE-1-OXIDE, 56-57-5, Dose [Inhibitor]: 0, 500 PPM IN DIET FOR 22 WK BEGINNING 1 WK POST CARCINOGEN TREATMENT (STUDY DURATION: 32 WK), Strain/Sex: F344/MALE, Target Tissue: Type of Lesion: TONGUE: PAPILLOMA, Dose [Carcinogen]: 20 PPM IN DRINKING WATER FOR 8 WK, Promoter: NONE USED): 3/19 (16%), 3/21 (14%), 13%, not significant and 16%, 14%, 13%, not significant
tumour outcome (control, treated, inhibition, significance) (Carcinogen: 4-NITROQUINOLINE-1-OXIDE, 56-57-5, Dose [Inhibitor]: 0, 1000 PPM IN DIET FOR 10 WK BEGINNING 1 WK PRIOR TO CARCINOGEN TREATMENT (STUDY DURATION: 32 WK), Strain/Sex: F344/MALE, Target Tissue: Type of Lesion: TONGUE: PAPILLOMA, Dose [Carcinogen]: 20 PPM IN DRINKING WATER FOR 8 WK, Promoter: NONE USED): 3/19 (16%), 2/19 (11%), 31%, not significant and 16%, 11%, 31%, not significant
tumour outcome (control, treated, inhibition, significance) (Carcinogen: 4-NITROQUINOLINE-1-OXIDE, 56-57-5, Dose [Inhibitor]: 0, 1000 PPM IN DIET FOR 22 WK BEGINNING 1 WK POST CARCINOGEN TREATMENT (STUDY DURATION: 32 WK), Strain/Sex: F344/MALE, Target Tissue: Type of Lesion: TONGUE: PAPILLOMA, Dose [Carcinogen]: 20 PPM IN DRINKING WATER FOR 8 WK, Promoter: NONE USED): 3/19 (16%), 4/19 (21%), -31%, not significant
tumour outcome (control, treated, inhibition, significance) (Carcinogen: 4-NITROQUINOLINE-1-OXIDE, 56-57-5, Dose [Inhibitor]: 0, 2000 PPM IN DIET FOR 10 WK BEGINNING 1 WK PRIOR TO CARCINOGEN TREATMENT (STUDY DURATION: 32 WK), Strain/Sex: F344/MALE, Target Tissue: Type of Lesion: TONGUE: PAPILLOMA, Dose [Carcinogen]: 20 PPM IN DRINKING WATER FOR 8 WK, Promoter: NONE USED): 3/19 (16%), 2/21 (10%), 38%, not significant and 16%, 10%, 38%, not significant
tumour outcome (control, treated, inhibition, significance) (Carcinogen: 4-NITROQUINOLINE-1-OXIDE, 56-57-5, Dose [Inhibitor]: 0, 2000 PPM IN DIET FOR 22 WK BEGINNING 1 WK POST CARCINOGEN TREATMENT (STUDY DURATION: 32 WK), Strain/Sex: F344/MALE, Target Tissue: Type of Lesion: TONGUE: PAPILLOMA, Dose [Carcinogen]: 20 PPM IN DRINKING WATER FOR 8 WK, Promoter: NONE USED): 3/19 (16%), 2/20 (10%), 38%, not significant and 16%, 10%, 38%, not significant
tumour outcome (control, treated, inhibition, significance) (Carcinogen: AZOXYMETHANE, 24843-45-2, Dose [Inhibitor]: 0, 500 PPM IN DIET FOR 28 WK BEGINNING 1 WK POST CARCINOGEN TREATMENT (STUDY DURATION: 32 WK), Strain/Sex: F344/MALE, Target Tissue: Type of Lesion: COLON: ADENOMA, Dose [Carcinogen]: 15 MG/KG BW 1/WK FOR 3 WK, Promoter: NONE USED): 10%, 15%, -50%, not significant
tumour outcome (control, treated, inhibition, significance) (Carcinogen: AZOXYMETHANE, 25843-45-2, Dose [Inhibitor]: 0, 250 PPM IN DIET FOR 4 WK BEGINNING 1 WK PRIOR TO CARCINOGEN TREATMENT (STUDY DURATION: 32 WK), Strain/Sex: F344/MALE, Target Tissue: Type of Lesion: COLON: ADENOCARCINOMA, Dose [Carcinogen]: 15 MG/KG BW 1/WK FOR 3 WK, Promoter: NONE USED): 75%, 40%, 47%, not significant
tumour outcome (control, treated, inhibition, significance) (Carcinogen: AZOXYMETHANE, 25843-45-2, Dose [Inhibitor]: 0, 250 PPM IN DIET FOR 4 WK BEGINNING 1 WK PRIOR TO CARCINOGEN TREATMENT (STUDY DURATION: 32 WK), Strain/Sex: F344/MALE, Target Tissue: Type of Lesion: COLON: ADENOMA, Dose [Carcinogen]: 15 MG/KG BW 1/WK FOR 3 WK, Promoter: NONE USED): 10%, 5%, 50%, not significant
tumour outcome (control, treated, inhibition, significance) (Carcinogen: AZOXYMETHANE, 25843-45-2, Dose [Inhibitor]: 0, 250 PPM IN DIET FOR 4 WK BEGINNING 1 WK PRIOR TO CARCINOGEN TREATMENT (STUDY DURATION: 32 WK), Strain/Sex: F344/MALE, Target Tissue: Type of Lesion: LARGE INTESTINE: ADENOCARCINOMA, Dose [Carcinogen]: 15 MG/KG BW 1/WK FOR 3 WK, Promoter: NONE USED): 15/20 (75%), 8/20 (40%), 47%, not significant
tumour outcome (control, treated, inhibition, significance) (Carcinogen: AZOXYMETHANE, 25843-45-2, Dose [Inhibitor]: 0, 250 PPM IN DIET FOR 4 WK BEGINNING 1 WK PRIOR TO CARCINOGEN TREATMENT (STUDY DURATION: 32 WK), Strain/Sex: F344/MALE, Target Tissue: Type of Lesion: LARGE INTESTINE: ADENOMA, Dose [Carcinogen]: 15 MG/KG BW 1/WK FOR 3 WK, Promoter: NONE USED): 2/20 (10%), 1/20 (5%), 50%, not significant
tumour outcome (control, treated, inhibition, significance) (Carcinogen: AZOXYMETHANE, 25843-45-2, Dose [Inhibitor]: 0, 250 PPM IN DIET FOR 4 WK BEGINNING 1 WK PRIOR TO CARCINOGEN TREATMENT (STUDY DURATION: 32 WK), Strain/Sex: F344/MALE, Target Tissue: Type of Lesion: SMALL INTESTINE: ADENOCARCINOMA, Dose [Carcinogen]: 15 MG/KG BW 1/WK FOR 3 WK, Promoter: NONE USED): 6/20 (30%), 7/20 (35%), -17%, not significant
tumour outcome (control, treated, inhibition, significance) (Carcinogen: AZOXYMETHANE, 25843-45-2, Dose [Inhibitor]: 0, 250 PPM IN DIET FOR 4 WK BEGINNING 1 WK PRIOR TO CARCINOGEN TREATMENT (STUDY DURATION: 32 WK), Strain/Sex: F344/MALE, Target Tissue: Type of Lesion: SMALL INTESTINE: ADENOMA, Dose [Carcinogen]: 15 MG/KG BW 1/WK FOR 3 WK, Promoter: NONE USED): 1/20 (5%), 0/20 (0%), 100%, not significant
tumour outcome (control, treated, inhibition, significance) (Carcinogen: AZOXYMETHANE, 25843-45-2, Dose [Inhibitor]: 0, 250 PPM IN DIET FOR 28 WK BEGINNING 1 WK POST CARCINOGEN TREATMENT (STUDY DURATION: 32 WK), Strain/Sex: F344/MALE, Target Tissue: Type of Lesion: COLON: ADENOCARCINOMA, Dose [Carcinogen]: 15 MG/KG BW 1/WK FOR 3 WK, Promoter: NONE USED): 75%, 40%, 47%, not significant
tumour outcome (control, treated, inhibition, significance) (Carcinogen: AZOXYMETHANE, 25843-45-2, Dose [Inhibitor]: 0, 250 PPM IN DIET FOR 28 WK BEGINNING 1 WK POST CARCINOGEN TREATMENT (STUDY DURATION: 32 WK), Strain/Sex: F344/MALE, Target Tissue: Type of Lesion: COLON: ADENOMA, Dose [Carcinogen]: 15 MG/KG BW 1/WK FOR 3 WK, Promoter: NONE USED): 10%, 20%, -100%, not significant
tumour outcome (control, treated, inhibition, significance) (Carcinogen: AZOXYMETHANE, 25843-45-2, Dose [Inhibitor]: 0, 250 PPM IN DIET FOR 28 WK BEGINNING 1 WK POST CARCINOGEN TREATMENT (STUDY DURATION: 32 WK), Strain/Sex: F344/MALE, Target Tissue: Type of Lesion: LARGE INTESTINE: ADENOCARCINOMA, Dose [Carcinogen]: 15 MG/KG BW 1/WK FOR 3 WK, Promoter: NONE USED): 15/20 (75%), 8/20 (40%), 47%, not significant
tumour outcome (control, treated, inhibition, significance) (Carcinogen: AZOXYMETHANE, 25843-45-2, Dose [Inhibitor]: 0, 250 PPM IN DIET FOR 28 WK BEGINNING 1 WK POST CARCINOGEN TREATMENT (STUDY DURATION: 32 WK), Strain/Sex: F344/MALE, Target Tissue: Type of Lesion: LARGE INTESTINE: ADENOMA, Dose [Carcinogen]: 15 MG/KG BW 1/WK FOR 3 WK, Promoter: NONE USED): 2/20 (10%), 4/20 (20%), -100%, not significant
tumour outcome (control, treated, inhibition, significance) (Carcinogen: AZOXYMETHANE, 25843-45-2, Dose [Inhibitor]: 0, 250 PPM IN DIET FOR 28 WK BEGINNING 1 WK POST CARCINOGEN TREATMENT (STUDY DURATION: 32 WK), Strain/Sex: F344/MALE, Target Tissue: Type of Lesion: SMALL INTESTINE: ADENOCARCINOMA, Dose [Carcinogen]: 15 MG/KG BW 1/WK FOR 3 WK, Promoter: NONE USED): 6/20 (30%), 5/20 (25%), 17%, not significant
tumour outcome (control, treated, inhibition, significance) (Carcinogen: AZOXYMETHANE, 25843-45-2, Dose [Inhibitor]: 0, 250 PPM IN DIET FOR 28 WK BEGINNING 1 WK POST CARCINOGEN TREATMENT (STUDY DURATION: 32 WK), Strain/Sex: F344/MALE, Target Tissue: Type of Lesion: SMALL INTESTINE: ADENOMA, Dose [Carcinogen]: 15 MG/KG BW 1/WK FOR 3 WK, Promoter: NONE USED): 1/20 (5%), 0/20 (0%), 100%, not significant
